Measured values reported in patent US20250170239A1, “CELLULAR REPROGRAMMING BY TARGETING THE GOLGI APPARATUS” (MUSC Foundation for Research Development, priority 2023, published 2025).

Legend:
[1] = test system: TILs isolated from B16-F10 tumors; conditions: expanded +/− GYY4137
Protocol: To obtain tumor-infiltrating T cells (TILs) from subcutaneously established solid B16-F10 melanoma-bearing mice, tumors were excised, chopped finely using tweezers and scissors, and then digested with 2 mg/ml collagenase type IV (Stemcell Technologies, Vancouver, BC) for 45 min. The tumors were filtered through […] (BD Biosciences, San Jose, CA). The cell suspension was washed in culture medium twice by centrifugation at 1500 rpm for 10 min at 4° C. After the second wash, the cells were re-suspended in 6 ml PBS and layered carefully over 3 ml Ficoll-paque (GE Healthcare) followed by centrifugation at 1500 rpm for 30 min at room temperature. The enriched TILs obtained at the interface as a thin buffy layer were washed with PBS twice and finally re-suspended in FACS staining buffer for further staining procedures.

Foxo1 = experiment: Nuclear vs cytoplasmic Foxo1 by western blot; format: cell-based, mouse; conditions: GYY4137 0.5 mM, 3 days
Protocol: (FIG. 18C) NAD+ and nicotinamide quantification from metabolomics dataset.
For evaluation of the protein level, cell pellets were washed in PBS and lysed in RIPA buffer (Thermo Fisher Scientific, Waltham, MA), including protease/phosphatase inhibitors, vortexed, and incubated for 20 minutes on ice. Cell lysates were then centrifuged at 12,000 rpm for 15 min at 4° C. The supernatants were collected, and proteins were quantified with a BCA protein assay kit (Thermo Fisher Scientific, Waltham, MA). For immunoblot analyses, 20 μg of protein lysates per sample were denatured in 4× Loading dye and boiled using a heating block at 95 degrees for 10 minutes before loading to SDS gradient gels 4%-20% (Bio-Rad Criterion, 1h runs). Gels were semi-dry transferred onto PVDF, and the membranes were blocked with 3% milk in 0.1% TBST. The membraneNext, the membrane was probed with the following primary antibodies: anti-Prdx4 (Proteintech, 10703-1-AP), anti-eIF2a (Cell Signaling Technology, #9722), or anti-β-Actin (Signaling Technology, #4967L) overnight at 4° C. followed by one-hour incubation with HRP-conjugated secondary antibody (Cell Signaling Technology, Danvers, MA) and using a Clarity Western ECL Substrate (Bio-Rad, Hercules, CA).

Compound: C1COCCN1.COc1ccc(P(=S)(S)N2CCOCC2)cc1 (stereo not drawn) [GYY4137]
- GM130 expression [1]: significantly higher GM130 expression
- PD1 expression [1]: lower PD1 expression
- nuclear localization of Foxo1 (Foxo1): increased nuclear localization of Foxo1
